Measurements taken from patent publication US20070116781A1, “Hydrogen Cyanamide Pesticide Formulations” (priority 2005, published 2007).

Legend:
microbivorous nematodes = assay: Effect on beneficial nematodes in covered pots of silt loam; type: in vivo
Procedure: In this study, the soil was naturally infested with four species of nematodes, two of which were deleterious and two beneficial, and observations were made of both the nematode survival and the growth of the soybean plants.
Stock solutions of hydrogen cyanamide at 1.0% by weight and propionic acid at 5.0% by weight, both in water, were prepared, the hydrogen cyanamide from a phosphate-buffered 50% aqueous solution. Planting pots measuring 10 cm in diameter, each containing 1 kg of soil, were used. The soil was silt loam from a cotton field, pH 6.2, CEC<10 meq/100 g soil, organic matter<1.0%. The treatment chemicals were combined in various dilutions such that 100 mL of the combined dilutions contained the desired amount of each chemical for each test. The combined dilutions were then applied to the soil surface in each pot, at 100 mL of combined dilution per pot. The dilutions were selected to achieve target application rates expressed in milligrams of the treatment chemical per kilogram of soil, with 1 milligram of treatment chemical per kilogram of soil being approximately equal to 2 kilograms of the chemical per hectare of soil or 2 pounds of the chemical per acre of soil.
Immediately after the treatment chemicals were applied, each pot was covered by a thick (1.5 mil), clear, low-density polyethylene bag. After twelve days, the bags were removed and soil samples were taken from each pot for nematological analysis by the salad bowl technique of Rodriguez-Kabana, R., and M. H. Pope, Nematropica, 11: 175-186 (1981). The results of these analyses are listed in Table I as pre-plant test results. The results for the two deleterious nematodes are also shown as plots of the number of nematodes vs. the hydrogen cyanamide application rate in FIGS. 1 and 2.
(§1) After the polyethylene bags were removed, each pot was planted with Hutcheson soybean seeds at 5 seeds per pot, and the seeds were allowed to germinate and the plants to grow for 45 days. The resulting plants were then removed from the pots, the root systems were washed, and the number of plants in each pot was determined. The weights of both fresh shoots and roots were also determined as well as the shoot height and the relative health of the root system, using a subjective index. Soil samples were also collected, and the soil and roots were incubated to determine nematode populations. Treatments were arranged in randomized complete block design with seven replications per treatment, and statistical evaluation of the data was performed with analyses of variance (ANOVA) and standard regression procedures. Fischer's Least Significant Difference at p 0.05 was calculated when appropriate. The results of these tests are listed as final test results in Tables II, III, and IV, with nematode populations in the soil listed in Table II, the nematode populations in the root systems in Table III, and the plant and root parameters of the soybean shoots in Table IV.

Hutcheson soybean = assay: Crop (soybean) conditions after soil treatment; type: in vivo; settings: 57 d after treatment; for Number of Plants/Pot: 5 seeds/pot
Procedure: as §1, with “In this study,” for “After”, “soil was naturally infested with four species of nematodes, two of which” for “polyethylene bags”, “deleterious and two beneficial, and observations were made of both the nematode survival” for “removed, each pot was planted with Hutcheson soybean seeds at 5 seeds per pot,”, “growth of the soybean plants. Stock solutions of hydrogen cyanamide at 1.0% by weight and propionic acid at 5.0% by weight, both in water,” for “seeds”, “prepared,” for “allowed to germinate and”, “hydrogen cyanamide from a phosphate-buffered 50% aqueous solution. Planting pots measuring 10 cm in diameter, each containing 1 kg of soil, were used. […]” for “plants to grow for 45 days.”

morningglory = assay: Herbicidal activity, phosphate-free cyanamide and propionic acid, post-emergence, uncovered pots; type: in vivo, Ipomoea spp.
Excerpt: The procedures in this example differed from those of Example 2, however, by the use of hydrogen cyanamide crystals free of phosphate ion to prepare the aqueous hydrogen cyanamide solution, by the use of post-emergence application, and by the omission of any covering of the pots during any part of the test. Observations were made for total weed growth, and individual observations were also made for yellow nutsedge, crabgrass, sicklepod, and momingglory. Stock solutions of hydrogen cyanamide at 1.25% by weight and propionic acid at 5.0% by weight, both in water, were prepared as before, except that the hydrogen cyanamide solution, as noted above, was prepared by dissolving hydrogen cyanamide crystals in water in the absence of phosphate ion. […] The weeds were allowed to grow for three weeks before the treatment chemicals were applied. […] Data analyses were performed in the same manner as Examples 1 and 2. Table IX lists the results in weeds per pot for all weeds, Table X for yellow nutsedge, Table XI for crabgrass, Table XII for sicklepod, and Table XIII for morningglory, all both with propionic acid alone at various application rates and with […]

[1] = microbivorous nematodes, in vivo, 57 d, pH 6.2

SMILES: CCC(=O)O [C2H5CO2H, propionic acid]
- Surviving Nematodes: Microbivorous (microbivorous nematodes; microbivorous nematodes, in vivo, 12 d, pH 6.2): 66 per 100 mL of soil
- Surviving Nematodes in Root System: Microbivorous (microbivorous nematodes; [1]): 96 Per Pot
- Surviving Nematodes: Microbivorous (microbivorous nematodes; [1]): 45 per 100 mL of soil
- Number of Plants/Pot (Hutcheson soybean; C2H5CO2H 250 mg/kg soil): 3.7
- Fresh Shoot Weight (Hutcheson soybean; C2H5CO2H 250 mg/kg soil): 19.6 g
- Root Condition Index (Hutcheson soybean; C2H5CO2H 250 mg/kg soil): 2.1
- Shoot Height (Hutcheson soybean; C2H5CO2H 250 mg/kg soil): 26.9 cm
- Weeds Per Pot: Morningglory (morningglory; 6 d after treatment, C2H5CO2H 100 mg/kg soil): 7
- Weeds Per Pot: Morningglory (morningglory; 6 d after treatment, C2H5CO2H 200 mg/kg soil): 2.1
- Weeds Per Pot: Morningglory (morningglory; 6 d after treatment, C2H5CO2H 300 mg/kg soil): 0
- Weeds Per Pot: Morningglory (morningglory; 6 d after treatment, C2H5CO2H 400 mg/kg soil): 0
- Weeds Per Pot: Morningglory (morningglory; 6 d after treatment, C2H5CO2H 500 mg/kg soil): 0
- Weeds Per Pot: Morningglory (morningglory; 13 d after treatment, C2H5CO2H 100 mg/kg soil): 7.3
- Weeds Per Pot: Morningglory (morningglory; 13 d after treatment, C2H5CO2H 200 mg/kg soil): 2.1
- Weeds Per Pot: Morningglory (morningglory; 13 d after treatment, C2H5CO2H 300 mg/kg soil): 0
- Weeds Per Pot: Morningglory (morningglory; 13 d after treatment, C2H5CO2H 400 mg/kg soil): 0
- Weeds Per Pot: Morningglory (morningglory; 13 d after treatment, C2H5CO2H 500 mg/kg soil): 0
- Weeds Per Pot: Morningglory (morningglory; 20 d after treatment, C2H5CO2H 100 mg/kg soil): 7.3
- Weeds Per Pot: Morningglory (morningglory; 20 d after treatment, C2H5CO2H 200 mg/kg soil): 2.1
- Weeds Per Pot: Morningglory (morningglory; 20 d after treatment, C2H5CO2H 300 mg/kg soil): 0
- Weeds Per Pot: Morningglory (morningglory; 20 d after treatment, C2H5CO2H 400 mg/kg soil): 0
- Weeds Per Pot: Morningglory (morningglory; 20 d after treatment, C2H5CO2H 500 mg/kg soil): 0

SMILES: N#CN [Cyanamide, hydrogen cyanamide]
- Surviving Nematodes: Microbivorous (microbivorous nematodes; 12 d after treatment, pre-plant, cyanamide 20 mg/kg soil): 92 per 100 mL of soil
- Surviving Nematodes: Microbivorous (microbivorous nematodes; 12 d after treatment, pre-plant, cyanamide 40 mg/kg soil): 86 per 100 mL of soil
- Surviving Nematodes: Microbivorous (microbivorous nematodes; 12 d after treatment, pre-plant, cyanamide 60 mg/kg soil): 96 per 100 mL of soil
- Surviving Nematodes: Microbivorous (microbivorous nematodes; 12 d after treatment, pre-plant, cyanamide 80 mg/kg soil): 144 per 100 mL of soil
- Surviving Nematodes: Microbivorous (microbivorous nematodes; 12 d after treatment, pre-plant, cyanamide 120 mg/kg soil): 75 per 100 mL of soil
- Surviving Nematodes: Microbivorous (microbivorous nematodes; 57 d after treatment, 45 d after planting, cyanamide 20 mg/kg soil): 132 per 100 mL of soil
- Surviving Nematodes: Microbivorous (microbivorous nematodes; 57 d after treatment, 45 d after planting, cyanamide 40 mg/kg soil): 121 per 100 mL of soil
- Surviving Nematodes: Microbivorous (microbivorous nematodes; 57 d after treatment, 45 d after planting, cyanamide 60 mg/kg soil): 78 per 100 mL of soil
- Surviving Nematodes: Microbivorous (microbivorous nematodes; 57 d after treatment, 45 d after planting, cyanamide 80 mg/kg soil): 99 per 100 mL of soil
- Surviving Nematodes: Microbivorous (microbivorous nematodes; 57 d after treatment, 45 d after planting, cyanamide 120 mg/kg soil): 52 per 100 mL of soil
- Surviving Nematodes in Root System: Microbivorous (microbivorous nematodes; 57 d after treatment, cyanamide 20 mg/kg soil): 176.9 Per Pot
- Surviving Nematodes in Root System: Microbivorous (microbivorous nematodes; 57 d after treatment, cyanamide 40 mg/kg soil): 126.9 Per Pot
- Surviving Nematodes in Root System: Microbivorous (microbivorous nematodes; 57 d after treatment, cyanamide 60 mg/kg soil): 118 Per Pot
- Surviving Nematodes in Root System: Microbivorous (microbivorous nematodes; 57 d after treatment, cyanamide 80 mg/kg soil): 113 Per Pot
- Surviving Nematodes in Root System: Microbivorous (microbivorous nematodes; 57 d after treatment, cyanamide 120 mg/kg soil): 123 Per Pot
- Number of Plants/Pot (Hutcheson soybean; cyanamide 20 mg/kg soil): 4
- Number of Plants/Pot (Hutcheson soybean; cyanamide 40 mg/kg soil): 3.9
- Number of Plants/Pot (Hutcheson soybean; cyanamide 60 mg/kg soil): 4.7
- Number of Plants/Pot (Hutcheson soybean; cyanamide 80 mg/kg soil): 4.4
- Number of Plants/Pot (Hutcheson soybean; cyanamide 120 mg/kg soil): 4.9
- Fresh Shoot Weight (Hutcheson soybean; cyanamide 20 mg/kg soil): 21.7 g
- Root Condition Index (Hutcheson soybean; cyanamide 20 mg/kg soil): 1.6
- Shoot Height (Hutcheson soybean; cyanamide 20 mg/kg soil): 26.4 cm
- Fresh Shoot Weight (Hutcheson soybean; cyanamide 40 mg/kg soil): 20.5 g
- Root Condition Index (Hutcheson soybean; cyanamide 40 mg/kg soil): 1.4
- Shoot Height (Hutcheson soybean; cyanamide 40 mg/kg soil): 26.5 cm
- Fresh Shoot Weight (Hutcheson soybean; cyanamide 60 mg/kg soil): 25.5 g
- Root Condition Index (Hutcheson soybean; cyanamide 60 mg/kg soil): 1.1
- Shoot Height (Hutcheson soybean; cyanamide 60 mg/kg soil): 27 cm
- Fresh Shoot Weight (Hutcheson soybean; cyanamide 80 mg/kg soil): 24.95 g
- Root Condition Index (Hutcheson soybean; cyanamide 80 mg/kg soil): 1.1
- Shoot Height (Hutcheson soybean; cyanamide 80 mg/kg soil): 27.1 cm
- Fresh Shoot Weight (Hutcheson soybean; cyanamide 120 mg/kg soil): 29.4 g
- Root Condition Index (Hutcheson soybean; cyanamide 120 mg/kg soil): 1.3
- Shoot Height (Hutcheson soybean; cyanamide 120 mg/kg soil): 28.7 cm
- Weeds Per Pot: Morningglory (morningglory; 6 d after treatment, cyanamide 150 mg/kg soil): 3.3
- Weeds Per Pot: Morningglory (morningglory; 13 d after treatment, cyanamide 150 mg/kg soil): 2.7
- Weeds Per Pot: Morningglory (morningglory; 20 d after treatment, cyanamide 150 mg/kg soil): 2.9
- Morningglory weeds per pot (morningglory; hydrogen cyanamide 125 mg/kg of soil alone, all intervals): about three or fewer momingglory weeds per pot
